Assay results: ChEMBL document CHEMBL1201862, “PubChem BioAssay data set” (2004)
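Grown in 96-well plates, cells were treated for 48 hours with each compound at five concentrations. Insufficient inhibition: endpoint recorded as highest concentration tested. GI50: concentration for 50% inhibition of growth.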 The source made the active and inactive calls. Cut-off read from the data, not from the text of the source: active = GI50 up to about 1.1 µM and inactive = higher.

Legend:
Assay in all cases: NCI tumour cell line growth inhibition, 48 h
OVCAR-5 = test system: OVCAR-5
T47D = test system: T47D
OVCAR-4 = test system: OVCAR-4
RPMI-8226 = test system: RPMI-8226
SK-MEL-5 = test system: SK-MEL-5
M14 = test system: M14
ACHN = test system: ACHN
K562 = test system: K562
Hs-578T = test system: Hs-578T
A498 = test system: A498
IGROV-1 = test system: IGROV-1
SF-539 = test system: SF-539
HL-60 = test system: HL-60
HCT-116 = test system: HCT-116
OVCAR-3 = test system: OVCAR-3
COLO 205 = test system: COLO 205
UACC-62 = test system: UACC-62
MDA-N = test system: MDA-N
786-0 = test system: 786-0
SNB-75 = test system: SNB-75
SR = test system: SR
BT-549 = test system: BT-549
SK-MEL-2 = test system: SK-MEL-2
DU-145 = test system: DU-145
MCF7 = test system: MCF7
HCT-15 = test system: HCT-15
SF-268 = test system: SF-268
NCI/ADR-RES = test system: NCI/ADR-RES
NCI-H460 = test system: NCI-H460
SF-295 = test system: SF-295
SW-620 = test system: SW-620
UO-31 = test system: UO-31
MDA-MB-435 = test system: MDA-MB-435
SN12C = test system: SN12C
SK-MEL-28 = test system: SK-MEL-28
Malme-3M = test system: Malme-3M
HOP-62 = test system: HOP-62
A549 = test system: A549
MDA-MB-231 = test system: MDA-MB-231
HOP-92 = test system: HOP-92
SK-OV-3 = test system: SK-OV-3
LOX IMVI = test system: LOX IMVI
UACC-257 = test system: UACC-257
PC-3 = test system: PC-3
CAKI-1 = test system: CAKI-1
KM12 = test system: KM12
U-251 = test system: U-251
CCRF-CEM = test system: CCRF-CEM
SNB-19 = test system: SNB-19
NCI-H23 = test system: NCI-H23
HT-29 = test system: HT-29
HCC 2998 = test system: HCC 2998
TK-10 = test system: TK-10
RXF 393 = test system: RXF 393
MOLT-4 = test system: MOLT-4
NCI-H226 = test system: NCI-H226
EKVX = test system: EKVX
OVCAR-8 = test system: OVCAR-8
NCI-H522 = test system: NCI-H522

With CCOC(=O)/C=C(\N=P(c1ccccc1)(c1ccccc1)c1ccccc1)C(F)(F)C(F)(F)C(F)(F)C(F)(F)C(F)(F)F the GI50 (OVCAR-5) was > 100 µM (inactive), the GI50 (T47D) was > 100 µM (inactive) and the GI50 (OVCAR-4) was > 100 µM (inactive). For the same molecule, the GI50 (RPMI-8226) was > 100 µM (inactive), the GI50 (SK-MEL-5) was > 100 µM (inactive) and the GI50 (M14) was > 100 µM (inactive). The GI50 (ACHN) was 47.8 µM (inactive), the GI50 (K562) was > 100 µM (inactive) and the GI50 (Hs-578T) was > 100 µM (inactive). For the same molecule, the GI50 (A498) was 0.0675 µM (active), the GI50 (IGROV-1) was > 100 µM (inactive) and the GI50 (SF-539) was > 100 µM (inactive). The GI50 (HL-60) was > 100 µM (inactive), the GI50 (HCT-116) was > 100 µM (inactive) and the GI50 (OVCAR-3) was > 100 µM (inactive). For the same molecule, the GI50 (COLO 205) was > 100 µM (inactive), the GI50 (UACC-62) was > 100 µM (inactive) and the GI50 (MDA-N) was > 100 µM (inactive). The GI50 (786-0) was > 100 µM (inactive), the GI50 (SNB-75) was > 100 µM (inactive) and the GI50 (SR) was > 100 µM (inactive). For the same molecule, the GI50 (BT-549) was > 100 µM (inactive), the GI50 (SK-MEL-2) was > 100 µM (inactive) and the GI50 (DU-145) was > 100 µM (inactive). For the same molecule, the GI50 (MCF7) was > 100 µM (inactive), the GI50 (HCT-15) was over 100 µM and the GI50 (SF-268) was > 100 µM (inactive). For the same molecule, the GI50 (NCI/ADR-RES) was > 100 µM (inactive), the GI50 (NCI-H460) was > 100 µM (inactive) and the GI50 (SF-295) was > 100 µM (inactive). The GI50 (SW-620) was > 100 µM (inactive), the GI50 (UO-31) was > 100 µM (inactive) and the GI50 (MDA-MB-435) was > 100 µM (inactive). For the same molecule, the GI50 (SN12C) was > 100 µM (inactive), the GI50 (SK-MEL-28) was > 100 µM (inactive) and the GI50 (Malme-3M) was > 100 µM (inactive). The GI50 (HOP-62) was > 100 µM (inactive), the GI50 (A549) was > 100 µM (inactive) and the GI50 (MDA-MB-231) was > 100 µM (inactive). The GI50 (HOP-92) was > 100 µM (inactive), the GI50 (SK-OV-3) was > 100 µM (inactive) and the GI50 (LOX IMVI) was > 100 µM (inactive). For the same molecule, the GI50 (UACC-257) was > 100 µM (inactive), the GI50 (PC-3) was > 100 µM (inactive) and the GI50 (CAKI-1) was > 100 µM (inactive). For the same molecule, the GI50 (KM12) was > 100 µM (inactive), the GI50 (U-251) was > 100 µM (inactive) and the GI50 (CCRF-CEM) was > 100 µM (inactive). The GI50 (SNB-19) was > 100 µM (inactive), the GI50 (NCI-H23) was > 100 µM (inactive) and the GI50 (HT-29) was > 100 µM (inactive). For the same molecule, the GI50 (HCC 2998) was > 100 µM (inactive), the GI50 (TK-10) was > 100 µM (inactive) and the GI50 (RXF 393) was > 100 µM (inactive). For the same molecule, the GI50 (MOLT-4) was > 100 µM (inactive).
In the case of COc1ccc(C2=C(N)c3ncccc3C2=O)cc1, the GI50 (OVCAR-5) was > 100 µM (inactive), the GI50 (T47D) was > 100 µM (inactive) and the GI50 (OVCAR-4) was > 100 µM (inactive). The GI50 (RPMI-8226) was > 100 µM (inactive), the GI50 (M14) was > 100 µM (inactive) and the GI50 (NCI-H226) was > 100 µM (inactive). For the same molecule, the GI50 (ACHN) was > 10 µM (inactive), the GI50 (K562) was > 100 µM (inactive) and the GI50 (Hs-578T) was 18.9 µM (inactive). For the same molecule, the GI50 (A498) was > 100 µM (inactive), the GI50 (IGROV-1) was > 100 µM (inactive) and the GI50 (SF-539) was > 100 µM (inactive). The GI50 (HL-60) was 93.8 µM (inactive), the GI50 (HCT-116) was > 100 µM (inactive) and the GI50 (EKVX) was 45 µM (inactive). The GI50 (OVCAR-3) was 91.2 µM (inactive), the GI50 (COLO 205) was 72.6 µM (inactive) and the GI50 (UACC-62) was 60.8 µM (inactive). The GI50 (MDA-N) was > 100 µM (inactive), the GI50 (786-0) was > 100 µM (inactive) and the GI50 (SNB-75) was > 100 µM (inactive). The GI50 (SR) was 69.7 µM (inactive), the GI50 (BT-549) was > 100 µM (inactive) and the GI50 (SK-MEL-2) was > 100 µM (inactive). The GI50 (DU-145) was > 100 µM (inactive), the GI50 (MCF7) was > 100 µM (inactive) and the GI50 (HCT-15) was over 100 µM. For the same molecule, the GI50 (SF-268) was > 100 µM (inactive), the GI50 (NCI/ADR-RES) was > 100 µM (inactive) and the GI50 (NCI-H460) was > 100 µM (inactive). For the same molecule, the GI50 (SF-295) was > 100 µM (inactive), the GI50 (SW-620) was > 100 µM (inactive) and the GI50 (UO-31) was > 100 µM (inactive). The GI50 (MDA-MB-435) was > 100 µM (inactive), the GI50 (SN12C) was > 100 µM (inactive) and the GI50 (SK-MEL-28) was > 100 µM (inactive). For the same molecule, the GI50 (Malme-3M) was 43.9 µM (inactive), the GI50 (HOP-62) was > 100 µM (inactive) and the GI50 (MDA-MB-231) was > 100 µM (inactive). For the same molecule, the GI50 (HOP-92) was > 10 µM (inactive), the GI50 (SK-OV-3) was > 100 µM (inactive) and the GI50 (OVCAR-8) was > 100 µM (inactive). For the same molecule, the GI50 (LOX IMVI) was > 100 µM (inactive), the GI50 (UACC-257) was > 10 µM (inactive) and the GI50 (PC-3) was > 100 µM (inactive). For the same molecule, the GI50 (CAKI-1) was > 100 µM (inactive), the GI50 (KM12) was > 100 µM (inactive) and the GI50 (U-251) was > 100 µM (inactive). For the same molecule, the GI50 (CCRF-CEM) was > 100 µM (inactive), the GI50 (SNB-19) was > 100 µM (inactive) and the GI50 (NCI-H23) was > 100 µM (inactive). For the same molecule, the GI50 (HT-29) was > 100 µM (inactive), the GI50 (HCC 2998) was > 100 µM (inactive) and the GI50 (TK-10) was > 10 µM (inactive). For the same molecule, the GI50 (RXF 393) was 24.7 µM (inactive) and the GI50 (MOLT-4) was > 100 µM (inactive).
With CC1(C=O)CCC23COC4(CCC5C6(C)CCC(OC7OCC(OC8OC(CO)C(O)C(OC9OC(CO)C(O)C(O)C9O)C8OC8OCC(O)C(O)C8O)C(O)C7OC7OC(CO)C(O)C(O)C7O)C(C)(C)C6CCC5(C)C4(C)CC2O)C3C1 (stereo unspecified) the GI50 (OVCAR-5) was 1.29 µM (inactive), the GI50 (T47D) was 1.61 µM (inactive) and the GI50 (OVCAR-4) was 1.16 µM (inactive). For the same molecule, the GI50 (RPMI-8226) was 1.71 µM (inactive), the GI50 (SK-MEL-5) was 1.61 µM (inactive) and the GI50 (M14) was 1.52 µM (inactive). The GI50 (NCI-H226) was 1.8 µM (inactive), the GI50 (ACHN) was 1.3 µM (inactive) and the GI50 (K562) was 3.1 µM (inactive). For the same molecule, the GI50 (Hs-578T) was 1.5 µM (inactive), the GI50 (A498) was 0.552 µM (active) and the GI50 (IGROV-1) was 1.42 µM (inactive). For the same molecule, the GI50 (SF-539) was 1.3 µM (inactive), the GI50 (HL-60) was 0.356 µM (active) and the GI50 (HCT-116) was 1.44 µM (inactive). The GI50 (EKVX) was 1.5 µM (inactive), the GI50 (OVCAR-3) was 1.47 µM (inactive) and the GI50 (COLO 205) was 1.3 µM (inactive). For the same molecule, the GI50 (UACC-62) was 1.71 µM (inactive), the GI50 (MDA-N) was 0.557 µM (active) and the GI50 (786-0) was 1.2 µM (inactive). For the same molecule, the GI50 (SNB-75) was 1.26 µM (inactive), the GI50 (SR) was 0.132 µM (active) and the GI50 (BT-549) was 1.57 µM (inactive). The GI50 (SK-MEL-2) was 1.57 µM (inactive), the GI50 (DU-145) was 1.46 µM (inactive) and the GI50 (MCF7) was 0.822 µM (active). The GI50 (HCT-15) was 1.53 µM, the GI50 (SF-268) was 1.14 µM (inactive) and the GI50 (NCI/ADR-RES) was 0.264 µM (active). For the same molecule, the GI50 (NCI-H460) was 1.29 µM (inactive), the GI50 (SF-295) was 0.908 µM (active) and the GI50 (SW-620) was 0.628 µM (active). For the same molecule, the GI50 (UO-31) was 1.48 µM (inactive), the GI50 (MDA-MB-435) was 1.48 µM (inactive) and the GI50 (HOP-62) was 2.13 µM (inactive). For the same molecule, the GI50 (A549) was 1.63 µM (inactive), the GI50 (MDA-MB-231) was 0.32 µM (active) and the GI50 (HOP-92) was 0.381 µM (active). For the same molecule, the GI50 (SK-OV-3) was 1.28 µM (inactive), the GI50 (OVCAR-8) was 0.365 µM (active) and the GI50 (LOX IMVI) was 1.24 µM (inactive). The GI50 (UACC-257) was 1.75 µM (inactive), the GI50 (PC-3) was 1.38 µM (inactive) and the GI50 (CAKI-1) was 1.12 µM (active). For the same molecule, the GI50 (KM12) was 0.0474 µM (active), the GI50 (U-251) was 2.34 µM (inactive) and the GI50 (CCRF-CEM) was 0.221 µM (active). The GI50 (NCI-H522) was 1.68 µM (inactive), the GI50 (SNB-19) was 0.198 µM (active) and the GI50 (NCI-H23) was 1.76 µM (inactive). The GI50 (HT-29) was 0.849 µM (active), the GI50 (HCC 2998) was 1.01 µM (active) and the GI50 (TK-10) was 1.89 µM (inactive). For the same molecule, the GI50 (MOLT-4) was 0.367 µM (active).
